This assay deals with tobacco budworm (Heliothis virescens [Fabricius]). The assay can be described thus: surface-treated diet test against the tobacco budworm. It is filed as in vivo. As to conditions: tobacco budworm second instar larvae, 0.25 millimoles of candidate insecticide on the surface of the diet, five-day exposure; for Percent Mortality: compared to total number of insects infested; for Percent Growth Inhibition: inhibition of insect weight relative to untreated controls. As to the method:
Candidate insecticides were evaluated for activity against the tobacco budworm (Heliothis virescens [Fabricius]) in a surface-treated diet test.
In this test one mL of molten (65–70° C.) wheat germ-based artificial diet was pipetted into each well of a four by six (24 well) multi-well plate (ID# 430345-15.5 mm dia.×17.6 mm deep; Corning Costar Corp., One Alewife Center, Cambridge, Mass. 02140). The diet was allowed to cool to ambient temperature before treatment with candidate insecticide.
For a determination of insecticidal activity, solutions of the candidate insecticides were prepared for testing using a Packard 204DT Multiprobe® Robotic System (Packard Instrument Company, 800 Research Parkway, Meriden, Conn. 06450), in which the robot first diluted a standard 50 millimolar DMSO solution of candidate insecticide with a 1:1 water/acetone solution (V/V) in a ratio of 1:7 stock solution to water/acetone. The robot subsequently pipetted 40 microliters of the so-prepared solution onto the surface of the diet in each of three wells in the 24 multi-well plate. The process was repeated with solutions of seven other candidate insecticides. Once treated, the contents of the multi-well plate were allowed to dry, leaving 0.25 millimoles of candidate insecticide on the surface of the diet, or a concentration of 0.25 millimolar. Appropriate untreated controls containing only DMSO on the diet surface were also included in this test. […]
In each well of the test plate was placed one second instar tobacco budworm larvea, each weighing approximately five milligrams. After the larvae were placed in each well, the plate was sealed with clear polyfilm adhesive tape. The tape over each well was perforated to ensure an adequate air supply. The plates were then held in a growth chamber at 25° C. and 60% relative humidity for five days (light 14 hours/day).
After the five-day exposure period insecticidal activity for each rate of application of candidate insecticide was assessed as percent inhibition of insect weight relative to the weight of insects from untreated controls, and percent mortality when compared to the total number of insects infested.
The test compounds of formula I are identified by numbers that correspond to those in Table 1.
These tests were conducted with 0.25 millimoles of candidate insecticide on the surface of the diet.

Turning to `C=C(C)COC(=O)Nc1ccc(CN2CCC(=C(c3ccc(Cl)cc3)c3ccc(Cl)cc3)CC2)cc1` [Compound 800], the “Percent Mortality” value turned out to be 0% and the “Percent Growth Inhibition” value is reported as 86%.

For the molecule `CCn1nnc(-c2ccc(CN3CCC(C(OC(=O)Nc4ccc(Cl)c(Cl)c4)c4ccc(C(F)(F)F)cc4)CC3)cc2)n1` (stereo not drawn) [Compound 283], for the setting “surface-treated diet”, the “Percent Mortality” value is recorded as 100% and the “Percent Growth Inhibition” value is recorded as 100%.

As to `O=C(Nc1cccc(F)c1)OC(c1ccc(OC(F)(F)F)cc1)C1CCN(Cc2ccc(Oc3ncccn3)cc2)CC1` (stereo not drawn) [Compound 734], the “Percent Mortality” value worked out at 100% and the “Percent Growth Inhibition” value turned out to be 100%.

With `[O-][N+]1(Cc2ccc(OCc3nccs3)cc2)CCC(=C(c2ccc(C(F)(F)F)cc2)c2ccc(C(F)(F)F)cc2)CC1` (stereo not drawn) [Compound 105], where the note is “surface-treated diet”, the “Percent Mortality” value is listed as 100% and the “Percent Growth Inhibition” value is on record as 100%.

Turning to `CC(C)COC(=O)Nc1ccc(C[N+]2([O-])CCC(=C(c3ccc(C(F)(F)F)cc3)c3ccc(C(F)(F)F)cc3)CC2)cc1` (stereo not drawn) [Compound 104], where the note is “surface-treated diet”, the “Percent Mortality” value was determined as 100% and the “Percent Growth Inhibition” value was 100%.

As to `Cn1nnc(-c2ccc(CN3CCC(C(Oc4ccc(Cl)cn4)c4ccc(C(F)(F)F)cc4)CC3)cc2)n1` (stereo not drawn) [Compound 435], where the note is “surface-treated diet”, the “Percent Mortality” value was determined as 100% and the “Percent Growth Inhibition” value is 100%.

As to `CCON=Cc1ccc(CN2CCC(C(OC(=O)Nc3cccc(F)c3)c3ccc(Cl)cc3Cl)CC2)cc1` (stereo not drawn) [Compound 530], under “surface-treated diet”, the “Percent Mortality” value came to 100% and the “Percent Growth Inhibition” value was found to be 100%.

On to `CCn1nnc(-c2ccc(CN3CCC(C(OC(=O)Nc4ccc(F)c(F)c4)c4ccccc4Cl)CC3)cc2)n1` (stereo not drawn) [Compound 569], for which, for the setting “surface-treated diet”, the “Percent Mortality” value was determined as 100% and the “Percent Growth Inhibition” value was determined as 100%.

As for `O=C(Nc1cc(F)cc(F)c1)OC(c1ccc(C(F)(F)F)cc1)C1CC[N+]([O-])(Cc2ccc(-c3ccccc3)cc2)CC1` (stereo not drawn) [Compound 748], the “Percent Mortality” value was found to be 100% and the “Percent Growth Inhibition” value stood at 100%.

In the case of `O=C(Nc1cc(F)cc(F)c1)OC(c1ccc(C(F)(F)F)cc1)C1CC[N+]([O-])(Cc2ccc(Oc3cc(C(F)(F)F)ccn3)cc2)CC1` (stereo not drawn) [Compound 760], the “Percent Mortality” value was determined as 100% and the “Percent Growth Inhibition” value is reported as 100%.

Regarding `CCON=Cc1ccc(CN2CCC(C(OC(=O)Nc3cc(Cl)c(OC)cc3OC)c3ccc(C(F)(F)F)cc3)CC2)cc1` (stereo not drawn) [Compound 210], for the setting “surface-treated diet”, the “Percent Mortality” value is recorded as 0% and the “Percent Growth Inhibition” value is reported as 67%.

Take `[O-][N+]1(Cc2ccc(Oc3ccccn3)cc2)CCC(=C(c2ccc(Cl)cc2)c2ccc(Cl)cc2)CC1` (stereo not drawn) [Compound 841]: the “Percent Mortality” value was 100% and the “Percent Growth Inhibition” value amounted to 100%.

On to `CCn1nnc(-c2ccc(CN3CCC(C(OC(=O)Nc4ccc(C(F)(F)F)cc4)c4ccc(C(F)(F)F)cc4)CC3)cc2)n1` (stereo not drawn) [Compound 289], for which, where the note is “surface-treated diet”, the “Percent Mortality” value is given as 100% and the “Percent Growth Inhibition” value worked out at 100%.

Consider `O=C(Nc1ccc(OC(F)F)cc1)OC(c1ccc(C(F)(F)F)cc1)C1CCN(Cc2ccc(Oc3ccccn3)cc2)CC1` (stereo not drawn) [Compound 701], for which the “Percent Mortality” value was found to be 100% and the “Percent Growth Inhibition” value is 100%.

Consider `Cn1nnc(-c2ccc(CN3CCC(C(OC(=O)Nc4ccc(C(F)(F)F)cc4)c4ccc(OC(F)(F)F)cc4)CC3)cc2)n1` (stereo not drawn) [Compound 290], for which, where the note is “surface-treated diet”, the “Percent Mortality” value was 100% and the “Percent Growth Inhibition” value is on record as 100%.

With `O=C(Nc1c(Cl)cccc1Cl)OC(c1ccc(C(F)(F)F)cc1)C1CCN(Cc2ccc(Oc3ccccn3)cc2)CC1` (stereo not drawn) [Compound 233], under “surface-treated diet”, the “Percent Mortality” value was found to be 33% and the “Percent Growth Inhibition” value is recorded as 100%.

For the molecule `CCn1nnc(-c2ccc(CN3CCC(C(OC(=O)Nc4ccc(Cl)cc4)c4cc(Cl)cc(Cl)c4)CC3)cc2)n1` (stereo not drawn) [Compound 577], under “surface-treated diet”, the “Percent Mortality” value turned out to be 100% and the “Percent Growth Inhibition” value turned out to be 100%.

Turning to `O=C(Nc1cccc(Br)c1)OC(c1ccc(C(F)(F)F)cc1)C1CCN(Cc2ccc(Oc3ccccn3)cc2)CC1` (stereo not drawn) [Compound 672], where the note is “surface-treated diet”, the “Percent Mortality” value worked out at 100% and the “Percent Growth Inhibition” value is recorded as 100%.

As to `CCn1nnc(-c2ccc(CN3CCC(C(OC(=O)Nc4cc(F)cc(F)c4)c4ccc(OC)cc4)CC3)cc2)n1` (stereo not drawn) [Compound 604], under “surface-treated diet”, the “Percent Mortality” value amounted to 100% and the “Percent Growth Inhibition” value came to 100%.

Take `CCON=Cc1ccc(C[N+]2([O-])CCC(C(OC(=O)Nc3cccc(F)c3)c3ccc(C(F)(F)F)cc3)CC2)cc1` (stereo not drawn) [Compound 742]: the “Percent Mortality” value is 100% and the “Percent Growth Inhibition” value is on record as 100%.

As to `Cn1nnc(-c2ccc(CN3CCC(C(OC(=O)Nc4ccc(OC(F)(F)F)cc4)c4ccc(OC(F)(F)F)cc4)CC3)cc2)n1` (stereo not drawn) [Compound 294], under “surface-treated diet”, the “Percent Mortality” value is on record as 100% and the “Percent Growth Inhibition” value worked out at 100%.

Take `CCn1nnc(-c2ccc(CN3CCC(C(OC(=O)c4ccc(OC(F)(F)F)cc4)c4ccc(OC(F)(F)F)cc4)CC3)cc2)n1` (stereo not drawn) [Compound 308]: where the note is “surface-treated diet”, the “Percent Mortality” value was determined as 100% and the “Percent Growth Inhibition” value is on record as 92%.

Consider `CCCS(=O)(=O)NC(c1ccc(OC(F)(F)F)cc1)C1CCN(Cc2ccc(-c3nnn(C)n3)cc2)CC1` (stereo not drawn) [Compound 433, [(1-{[4-(2-methyl(1,2,3,4-tetraazol-5-yl))phenyl]methyl}(4-piperidyl))[4-(trifluoromethoxy)phenyl]methyl]propylsulfonylamide], for which, for the setting “surface-treated diet”, the “Percent Mortality” value came to 100% and the “Percent Growth Inhibition” value is 100%.

For the molecule `O=C(Nc1cccc(F)c1)OC(c1cc(Cl)cc(Cl)c1)C1CCN(Cc2ccc(Oc3ncccn3)cc2)CC1` (stereo not drawn) [Compound 727], the “Percent Mortality” value is given as 100% and the “Percent Growth Inhibition” value came to 100%.

As for `Cn1nnc(-c2ccc(CN3CCC(C(Oc4ccc(Cl)nn4)c4ccc(OC(F)(F)F)cc4)CC3)cc2)n1` (stereo not drawn) [Compound 453], where the note is “surface-treated diet”, the “Percent Mortality” value was found to be 83% and the “Percent Growth Inhibition” value amounted to 100%.

Turning to `Cn1nnc(-c2ccc(CN3CCC(C(NCc4ccc(OC(F)(F)F)cc4)c4ccc(OC(F)(F)F)cc4)CC3)cc2)n1` (stereo not drawn) [Compound 319], where the note is “surface-treated diet”, the “Percent Mortality” value worked out at 100% and the “Percent Growth Inhibition” value is listed as 100%.

Regarding `O=C(Nc1ccc(Cl)cc1)OC(c1ccc(C(F)(F)F)cc1)C1CC[N+]([O-])(Cc2ccc(Oc3ncccn3)cc2)CC1` (stereo not drawn) [Compound 762], the “Percent Mortality” value turned out to be 100% and the “Percent Growth Inhibition” value is given as 100%.

For the molecule `FC(F)(F)c1ccc(C(=C2CCN(Cc3ccc(Nc4ncccn4)nc3)CC2)c2ccc(C(F)(F)F)cc2)cc1` [Compound 859], the “Percent Mortality” value amounted to 0% and the “Percent Growth Inhibition” value is 46%.

For the molecule `O=C(Nc1ccc(F)cc1)OC(c1ccc(OC(F)(F)F)cc1)C1CCN(Cc2ccc(Cl)cc2)CC1` (stereo not drawn) [Compound 459], under “surface-treated diet”, the “Percent Mortality” value is 0% and the “Percent Growth Inhibition” value came out at 99%.

As to `Cn1nnc(-c2ccc(CN3CCC(=C(c4ccc(Cl)cc4)c4ccc(C(F)(F)F)cc4)CC3)cc2)n1` [Compound 74], where the note is “surface-treated diet”, the “Percent Mortality” value is reported as 100% and the “Percent Growth Inhibition” value amounted to 100%.

Regarding `CCON=Cc1ccc(CN2CCC(C(OC(=O)Nc3ccc(-c4ccccc4)cc3)c3ccc(C(F)(F)F)cc3)CC2)cc1` (stereo not drawn) [Compound 212], under “surface-treated diet”, the “Percent Mortality” value was found to be 100% and the “Percent Growth Inhibition” value is on record as 100%.

With `Cn1nnc(-c2ccc(CN3CCC(C(OC(=O)Nc4ccc(Cl)cc4)c4ccc(OC(F)(F)F)cc4)CC3)cc2)n1` (stereo not drawn) [Compound 266], under “surface-treated diet”, the “Percent Mortality” value came to 100% and the “Percent Growth Inhibition” value was 100%.

With `CCON=Cc1ccc(CN2CCC(C(OC(=O)Nc3cc(F)cc(F)c3)c3cc(Cl)cc(Cl)c3)CC2)cc1` (stereo not drawn) [Compound 534], for the setting “surface-treated diet”, the “Percent Mortality” value is reported as 100% and the “Percent Growth Inhibition” value is given as 100%.

In the case of `Cn1nnc(-c2ccc(CN3CCC(C(OC(=O)Nc4ccc(F)cc4)c4ccc(OC(F)(F)F)cc4)CC3)cc2)n1` (stereo not drawn) [Compound 275], for the setting “surface-treated diet”, the “Percent Mortality” value was found to be 100% and the “Percent Growth Inhibition” value was determined as 100%.

As to `FC(F)(F)c1ccc(C(=C2CCN(Cc3ccc(Oc4ncccn4)cc3)CC2)c2ccc(C(F)(F)F)cc2)cc1` [Compound 824], the “Percent Mortality” value was 100% and the “Percent Growth Inhibition” value amounted to 100%.

Consider `O=C(Nc1cccc(Cl)c1Cl)OC(c1ccc(C(F)(F)F)cc1)C1CCN(Cc2ccc(Oc3ccccn3)cc2)CC1` (stereo not drawn) [Compound 228], for which, for the setting “surface-treated diet”, the “Percent Mortality” value came to 100% and the “Percent Growth Inhibition” value is on record as 100%.

Source of the values: patent publication US7300946B2, “N-(substituted arylmethyl)-4-(disubstituted methyl) piperidines and pyridines” (Bayer CropScience AG, priority 2002, dated 2007).
